Experimental data taken from ChEMBL document CHEMBL1201862, “PubChem BioAssay data set” (2004).
Activity calls are given as the source filed them.

Key:
Aminopeptidase N = target: T1, Aminopeptidase N (Plasmodium falciparum FcB1/Columbia, UniProt O96935); test: malaria alanyl aminopeptidase activity blockers – biochemical, fluorogenic H-Leu-NHMec substrate, 1536-well (AID 1445); set-up: species or system Plasmodium falciparum 3D7, 3D7
T1 sequence (O96935 whole entry): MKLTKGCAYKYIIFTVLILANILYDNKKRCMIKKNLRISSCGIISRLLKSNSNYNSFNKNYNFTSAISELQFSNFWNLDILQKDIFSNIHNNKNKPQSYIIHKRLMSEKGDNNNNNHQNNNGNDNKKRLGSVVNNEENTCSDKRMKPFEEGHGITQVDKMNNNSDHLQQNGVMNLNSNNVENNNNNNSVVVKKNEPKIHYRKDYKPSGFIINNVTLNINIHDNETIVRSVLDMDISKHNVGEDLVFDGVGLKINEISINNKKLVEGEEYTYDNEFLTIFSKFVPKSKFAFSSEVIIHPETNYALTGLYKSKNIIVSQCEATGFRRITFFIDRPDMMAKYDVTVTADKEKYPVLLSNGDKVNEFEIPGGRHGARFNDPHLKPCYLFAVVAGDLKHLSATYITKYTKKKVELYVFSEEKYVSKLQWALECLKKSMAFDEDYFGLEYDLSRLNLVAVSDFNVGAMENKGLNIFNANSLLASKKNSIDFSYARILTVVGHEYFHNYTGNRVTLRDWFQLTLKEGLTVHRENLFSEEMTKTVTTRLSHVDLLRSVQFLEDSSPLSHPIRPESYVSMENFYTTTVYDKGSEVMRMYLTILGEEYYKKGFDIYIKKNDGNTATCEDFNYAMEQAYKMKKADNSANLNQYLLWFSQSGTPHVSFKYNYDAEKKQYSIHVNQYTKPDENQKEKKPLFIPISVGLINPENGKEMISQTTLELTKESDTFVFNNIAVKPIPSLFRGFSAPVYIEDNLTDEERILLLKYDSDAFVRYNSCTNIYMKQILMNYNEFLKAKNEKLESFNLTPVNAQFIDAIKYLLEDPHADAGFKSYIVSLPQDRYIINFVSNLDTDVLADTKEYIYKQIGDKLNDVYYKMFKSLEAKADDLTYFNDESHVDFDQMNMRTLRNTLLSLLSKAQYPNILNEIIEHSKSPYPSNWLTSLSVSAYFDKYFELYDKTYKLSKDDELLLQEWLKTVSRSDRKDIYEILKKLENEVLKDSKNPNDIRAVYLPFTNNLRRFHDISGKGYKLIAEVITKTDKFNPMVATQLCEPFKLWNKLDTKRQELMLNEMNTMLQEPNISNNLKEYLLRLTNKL

[1] = target: Luciferin 4-monooxygenase (Photinus pyralis, UniProt P08659); test: inhibition of purified Photinus pyralis luciferase – biochemical, luminescence, dose response (AID 1891)
Sequence of Luciferin 4-monooxygenase (P08659 whole entry): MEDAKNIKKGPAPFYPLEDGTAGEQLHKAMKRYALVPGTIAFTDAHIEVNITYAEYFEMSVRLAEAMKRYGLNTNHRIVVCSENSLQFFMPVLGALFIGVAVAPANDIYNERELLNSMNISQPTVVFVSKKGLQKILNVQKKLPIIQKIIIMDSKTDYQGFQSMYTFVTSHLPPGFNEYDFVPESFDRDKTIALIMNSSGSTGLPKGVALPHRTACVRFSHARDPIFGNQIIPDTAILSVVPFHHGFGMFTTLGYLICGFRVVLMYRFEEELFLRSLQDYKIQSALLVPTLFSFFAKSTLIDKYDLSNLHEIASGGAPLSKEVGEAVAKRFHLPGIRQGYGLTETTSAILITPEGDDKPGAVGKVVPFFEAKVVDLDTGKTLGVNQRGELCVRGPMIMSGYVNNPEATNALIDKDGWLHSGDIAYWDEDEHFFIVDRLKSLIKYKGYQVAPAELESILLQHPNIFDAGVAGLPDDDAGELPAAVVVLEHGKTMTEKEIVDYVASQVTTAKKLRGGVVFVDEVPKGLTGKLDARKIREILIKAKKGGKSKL

[2] = Luminescence Cell-Based Dose Confirmation HTS to Identify Inhibitors of Platelet Dense Granule Release. [Related pubchem assays: 1663 (Primary HTS), 1678 (Summary of Project)]; assay type: functional
[3] = viability loss in HeLa cells – cytotoxicity control for MgcRacGAP inhibitor project, dose response (AID 624300); assay type: functional
[4] = target: T2, Rac GTPase-activating protein 1 (Homo sapiens, UniProt Q9H0H5); test: blockers of MgcRacGAP-driven Rac1 GTP hydrolysis – biochemical, ADP Hunter fluorescence, primary and confirmatory, confirmation (AID 624330); assay type: functional
T2 sequence (Q9H0H5 whole entry): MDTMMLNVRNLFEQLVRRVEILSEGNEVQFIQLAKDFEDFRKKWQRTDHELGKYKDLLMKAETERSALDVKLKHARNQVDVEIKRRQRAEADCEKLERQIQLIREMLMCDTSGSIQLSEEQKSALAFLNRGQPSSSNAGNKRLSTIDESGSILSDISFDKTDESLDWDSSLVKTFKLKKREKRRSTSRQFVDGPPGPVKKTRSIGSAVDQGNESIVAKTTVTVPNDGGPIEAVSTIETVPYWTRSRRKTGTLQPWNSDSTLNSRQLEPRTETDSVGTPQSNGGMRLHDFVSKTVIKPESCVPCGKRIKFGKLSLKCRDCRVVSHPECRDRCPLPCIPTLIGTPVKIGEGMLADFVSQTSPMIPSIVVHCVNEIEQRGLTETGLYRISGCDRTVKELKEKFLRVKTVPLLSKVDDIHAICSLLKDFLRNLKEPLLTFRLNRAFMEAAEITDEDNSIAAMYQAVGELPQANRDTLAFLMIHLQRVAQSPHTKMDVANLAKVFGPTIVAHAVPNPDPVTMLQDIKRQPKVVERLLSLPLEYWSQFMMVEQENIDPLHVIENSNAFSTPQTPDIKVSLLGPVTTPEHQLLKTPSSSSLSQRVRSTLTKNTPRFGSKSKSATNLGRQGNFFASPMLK

[5] = A549 cell cytotoxicity, dose response, cytotoxicity control, plate reader, cherry-pick, antagonist series (AID 743412); assay type: functional, cell-based
[6] = blockers of bursicon-stimulated LGR2 cAMP reporter – cell-based, HEK293, CRE-luciferase reporter, cherry pick, set 2, dose response (AID 743343); assay type: functional;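 also: transfected cells were stimulated with diluted bursicon conditioned medium after compound addition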
[7] = blockade of melanocortin 4 receptor signaling – cell-based, plate reader, cherry pick, counter-screen for LGR2 antagonist project, dose response (AID 743444); assay type: functional;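 also: transfected HEK 293 cells stimulated with alpha-MSH peptide; potency of inhibitors of the alpha-MSH evoked signal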
[8] = target: T3, Heat shock factor protein 1 (Mus musculus, UniProt P38532); test: decrease of HSF1-responsive luciferase luminescence – cell-based, NIH3T3, dose retest, confirmation (AID 2382); assay type: functional;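 also: NIH3T3 fibroblasts with HSF1-driven luciferase reporter stressed by proteasome inhibitor MG132; luminescence from HSF1-driven luciferase expression after 8 hours of MG132 stress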
T3 sequence (P38532 whole entry): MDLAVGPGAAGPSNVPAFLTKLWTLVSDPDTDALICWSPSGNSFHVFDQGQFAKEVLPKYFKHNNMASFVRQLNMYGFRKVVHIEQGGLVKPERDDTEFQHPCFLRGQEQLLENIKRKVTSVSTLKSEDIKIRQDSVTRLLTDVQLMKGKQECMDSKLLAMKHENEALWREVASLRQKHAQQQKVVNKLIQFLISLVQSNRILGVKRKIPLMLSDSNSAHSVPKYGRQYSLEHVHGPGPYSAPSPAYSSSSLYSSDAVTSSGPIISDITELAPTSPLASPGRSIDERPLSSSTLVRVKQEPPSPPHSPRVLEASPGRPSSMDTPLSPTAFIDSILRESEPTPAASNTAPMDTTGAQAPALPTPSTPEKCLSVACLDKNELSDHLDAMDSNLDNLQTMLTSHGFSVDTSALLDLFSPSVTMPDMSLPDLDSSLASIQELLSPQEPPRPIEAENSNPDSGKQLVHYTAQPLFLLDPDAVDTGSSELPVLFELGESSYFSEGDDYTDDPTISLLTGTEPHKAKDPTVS

[9] = target: T4, Sentrin-specific protease 1 (Homo sapiens, UniProt Q9P0U3); test: SENP1 catalytic domain blockers, concentration series – biochemical, kinetic FRET, dose response (AID 651697); assay type: functional; conditions: read-out: IC50_Mean
T4 sequence (Q9P0U3 whole entry): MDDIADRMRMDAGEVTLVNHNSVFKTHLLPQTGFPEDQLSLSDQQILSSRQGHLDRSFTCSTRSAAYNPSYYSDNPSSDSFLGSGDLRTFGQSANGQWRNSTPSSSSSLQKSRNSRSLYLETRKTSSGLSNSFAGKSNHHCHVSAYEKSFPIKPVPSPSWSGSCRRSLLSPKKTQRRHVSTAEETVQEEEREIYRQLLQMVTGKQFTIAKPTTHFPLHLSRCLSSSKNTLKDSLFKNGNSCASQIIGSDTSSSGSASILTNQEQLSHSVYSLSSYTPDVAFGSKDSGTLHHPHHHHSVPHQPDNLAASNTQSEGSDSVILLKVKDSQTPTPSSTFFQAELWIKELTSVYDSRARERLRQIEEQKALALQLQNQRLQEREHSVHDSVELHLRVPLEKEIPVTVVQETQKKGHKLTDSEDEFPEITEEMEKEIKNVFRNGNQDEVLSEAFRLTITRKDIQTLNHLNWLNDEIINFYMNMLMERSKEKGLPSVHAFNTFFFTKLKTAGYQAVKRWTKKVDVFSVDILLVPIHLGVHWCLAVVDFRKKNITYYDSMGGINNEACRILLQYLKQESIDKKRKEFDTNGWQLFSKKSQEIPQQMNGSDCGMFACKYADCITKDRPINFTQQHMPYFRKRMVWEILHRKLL

[10] = target: T4, Sentrin-specific protease 1; test: Dose response confirmation of small molecule inhibitors of the catalytic domain of the SUMO protease, SENP1 in a FRET assay.; assay type: functional; conditions: read-out: IC50_Mean
[11] = target: Photoreceptor-specific nuclear receptor (Homo sapiens, UniProt Q9Y5X4); assay type: functional, cell-based;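 also: CHO-S cells with Gal4-NCOR and VP16-NR2E3 two-hybrid luciferase reporter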
Sequence of Photoreceptor-specific nuclear receptor (Q9Y5X4 whole entry, the tested form may be a part): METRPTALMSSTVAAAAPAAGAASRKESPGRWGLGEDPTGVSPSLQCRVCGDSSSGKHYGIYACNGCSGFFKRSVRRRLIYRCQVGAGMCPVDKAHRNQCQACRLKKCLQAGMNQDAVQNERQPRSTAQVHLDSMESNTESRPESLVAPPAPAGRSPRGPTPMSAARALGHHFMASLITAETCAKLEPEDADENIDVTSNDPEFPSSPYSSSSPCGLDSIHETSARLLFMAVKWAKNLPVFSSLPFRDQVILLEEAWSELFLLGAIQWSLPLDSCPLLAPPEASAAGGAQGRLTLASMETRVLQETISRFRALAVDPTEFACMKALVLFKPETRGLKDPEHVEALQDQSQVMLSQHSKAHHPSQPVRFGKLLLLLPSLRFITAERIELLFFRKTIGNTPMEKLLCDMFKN

INS1 = test: INS-1E survival protection against cytokine death – cell-based, luminescence, retest, dose response (AID 449756); assay type: functional; conditions: Rattus norvegicus;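 also: cell death triggered by IL-1 beta plus TNF-alpha plus IFN-gamma mixture; protective hits raise ATP signal compared with cytokine alone wells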
[12] = target: T5, Corticotropin-releasing factor receptor 2/Corticotropin-releasing factor-binding protein (Homo sapiens, UniProt P24387+Q13324); test: Dose Response confirmation of uHTS hits for small molecule antagonists of the CRF-binding protein and CRF-R2 receptor complex.; assay type: functional; conditions: read-out: IC50_Mean
T5 sequence (Q13324 whole entry): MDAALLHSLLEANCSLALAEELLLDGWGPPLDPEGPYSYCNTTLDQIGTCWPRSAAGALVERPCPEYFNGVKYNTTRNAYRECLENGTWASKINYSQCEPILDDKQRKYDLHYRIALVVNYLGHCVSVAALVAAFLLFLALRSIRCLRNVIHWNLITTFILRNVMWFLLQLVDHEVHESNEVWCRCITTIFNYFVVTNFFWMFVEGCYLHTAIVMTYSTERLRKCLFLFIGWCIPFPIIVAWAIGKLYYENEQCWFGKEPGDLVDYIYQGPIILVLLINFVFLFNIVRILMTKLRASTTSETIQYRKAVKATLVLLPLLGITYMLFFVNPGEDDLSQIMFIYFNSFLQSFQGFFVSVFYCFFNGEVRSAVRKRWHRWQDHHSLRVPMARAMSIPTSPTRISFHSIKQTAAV
T5 sequence (P24387 whole entry): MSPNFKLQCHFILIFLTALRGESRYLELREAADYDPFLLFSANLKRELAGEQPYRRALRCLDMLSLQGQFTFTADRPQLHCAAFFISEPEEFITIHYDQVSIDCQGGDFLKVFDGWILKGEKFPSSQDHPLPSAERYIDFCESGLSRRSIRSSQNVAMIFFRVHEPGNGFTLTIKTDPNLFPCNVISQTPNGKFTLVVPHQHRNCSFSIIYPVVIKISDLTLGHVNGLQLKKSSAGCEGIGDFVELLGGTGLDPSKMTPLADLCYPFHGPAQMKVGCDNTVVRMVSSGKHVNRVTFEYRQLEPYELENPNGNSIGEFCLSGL

[13] = target: T5, Corticotropin-releasing factor receptor 2/Corticotropin-releasing factor-binding protein; test: activators of CRF receptor 2 with binding protein – uHTS hits, confirmation (AID 602473); assay type: functional; conditions: read-out: EC50_Mean
[14] = blockers of CRF-binding protein–CRF-R2 complex – cell-based, uHTS hits, 384-well, dose response (AID 651639); assay type: functional, Homo sapiens; conditions: read-out: IC50_Mean
[15] = Fluorescence-based cell-based high throughput dose response assay for inhibitors of the interaction of nucleotide-binding oligomerization domain containing 2 (NOD2) and the receptor-interacting serine-threonine kinase 2 (RIPK2).; assay type: functional; conditions: Homo sapiens
Beta Lactamase = Beta Lactamase (Pseudomonas aeruginosa, UniProt Q932Y6); test: BLA reporter interference, concentration series – BLA reporter cells, FRET fluorescence, artefact control for NOD2-RIPK2 interaction inhibitor project, dose response (AID 651552); assay type: functional, cell-based
Sequence of Beta Lactamase (Q932Y6 whole entry): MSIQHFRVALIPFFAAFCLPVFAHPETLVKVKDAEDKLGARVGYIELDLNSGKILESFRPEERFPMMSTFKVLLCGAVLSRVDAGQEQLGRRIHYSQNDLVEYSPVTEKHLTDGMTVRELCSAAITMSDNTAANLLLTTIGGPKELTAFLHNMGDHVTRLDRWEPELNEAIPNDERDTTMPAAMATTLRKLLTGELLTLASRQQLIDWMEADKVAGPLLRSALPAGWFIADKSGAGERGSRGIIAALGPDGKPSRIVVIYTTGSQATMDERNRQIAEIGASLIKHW

Fatty acid synthase [16] = target: T6, Fatty acid synthase (Homo sapiens, UniProt P49327); test: inhibition of human FAS-TE enzyme activity – biochemical, endpoint fluorescence intensity, uHTS hits, dose response (AID 624327); assay type: functional;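 also: fluorescence from hydrolysis of an O-methyl fluorescein acyl ester substrate by the enzyme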
T6 sequence (P49327 whole entry): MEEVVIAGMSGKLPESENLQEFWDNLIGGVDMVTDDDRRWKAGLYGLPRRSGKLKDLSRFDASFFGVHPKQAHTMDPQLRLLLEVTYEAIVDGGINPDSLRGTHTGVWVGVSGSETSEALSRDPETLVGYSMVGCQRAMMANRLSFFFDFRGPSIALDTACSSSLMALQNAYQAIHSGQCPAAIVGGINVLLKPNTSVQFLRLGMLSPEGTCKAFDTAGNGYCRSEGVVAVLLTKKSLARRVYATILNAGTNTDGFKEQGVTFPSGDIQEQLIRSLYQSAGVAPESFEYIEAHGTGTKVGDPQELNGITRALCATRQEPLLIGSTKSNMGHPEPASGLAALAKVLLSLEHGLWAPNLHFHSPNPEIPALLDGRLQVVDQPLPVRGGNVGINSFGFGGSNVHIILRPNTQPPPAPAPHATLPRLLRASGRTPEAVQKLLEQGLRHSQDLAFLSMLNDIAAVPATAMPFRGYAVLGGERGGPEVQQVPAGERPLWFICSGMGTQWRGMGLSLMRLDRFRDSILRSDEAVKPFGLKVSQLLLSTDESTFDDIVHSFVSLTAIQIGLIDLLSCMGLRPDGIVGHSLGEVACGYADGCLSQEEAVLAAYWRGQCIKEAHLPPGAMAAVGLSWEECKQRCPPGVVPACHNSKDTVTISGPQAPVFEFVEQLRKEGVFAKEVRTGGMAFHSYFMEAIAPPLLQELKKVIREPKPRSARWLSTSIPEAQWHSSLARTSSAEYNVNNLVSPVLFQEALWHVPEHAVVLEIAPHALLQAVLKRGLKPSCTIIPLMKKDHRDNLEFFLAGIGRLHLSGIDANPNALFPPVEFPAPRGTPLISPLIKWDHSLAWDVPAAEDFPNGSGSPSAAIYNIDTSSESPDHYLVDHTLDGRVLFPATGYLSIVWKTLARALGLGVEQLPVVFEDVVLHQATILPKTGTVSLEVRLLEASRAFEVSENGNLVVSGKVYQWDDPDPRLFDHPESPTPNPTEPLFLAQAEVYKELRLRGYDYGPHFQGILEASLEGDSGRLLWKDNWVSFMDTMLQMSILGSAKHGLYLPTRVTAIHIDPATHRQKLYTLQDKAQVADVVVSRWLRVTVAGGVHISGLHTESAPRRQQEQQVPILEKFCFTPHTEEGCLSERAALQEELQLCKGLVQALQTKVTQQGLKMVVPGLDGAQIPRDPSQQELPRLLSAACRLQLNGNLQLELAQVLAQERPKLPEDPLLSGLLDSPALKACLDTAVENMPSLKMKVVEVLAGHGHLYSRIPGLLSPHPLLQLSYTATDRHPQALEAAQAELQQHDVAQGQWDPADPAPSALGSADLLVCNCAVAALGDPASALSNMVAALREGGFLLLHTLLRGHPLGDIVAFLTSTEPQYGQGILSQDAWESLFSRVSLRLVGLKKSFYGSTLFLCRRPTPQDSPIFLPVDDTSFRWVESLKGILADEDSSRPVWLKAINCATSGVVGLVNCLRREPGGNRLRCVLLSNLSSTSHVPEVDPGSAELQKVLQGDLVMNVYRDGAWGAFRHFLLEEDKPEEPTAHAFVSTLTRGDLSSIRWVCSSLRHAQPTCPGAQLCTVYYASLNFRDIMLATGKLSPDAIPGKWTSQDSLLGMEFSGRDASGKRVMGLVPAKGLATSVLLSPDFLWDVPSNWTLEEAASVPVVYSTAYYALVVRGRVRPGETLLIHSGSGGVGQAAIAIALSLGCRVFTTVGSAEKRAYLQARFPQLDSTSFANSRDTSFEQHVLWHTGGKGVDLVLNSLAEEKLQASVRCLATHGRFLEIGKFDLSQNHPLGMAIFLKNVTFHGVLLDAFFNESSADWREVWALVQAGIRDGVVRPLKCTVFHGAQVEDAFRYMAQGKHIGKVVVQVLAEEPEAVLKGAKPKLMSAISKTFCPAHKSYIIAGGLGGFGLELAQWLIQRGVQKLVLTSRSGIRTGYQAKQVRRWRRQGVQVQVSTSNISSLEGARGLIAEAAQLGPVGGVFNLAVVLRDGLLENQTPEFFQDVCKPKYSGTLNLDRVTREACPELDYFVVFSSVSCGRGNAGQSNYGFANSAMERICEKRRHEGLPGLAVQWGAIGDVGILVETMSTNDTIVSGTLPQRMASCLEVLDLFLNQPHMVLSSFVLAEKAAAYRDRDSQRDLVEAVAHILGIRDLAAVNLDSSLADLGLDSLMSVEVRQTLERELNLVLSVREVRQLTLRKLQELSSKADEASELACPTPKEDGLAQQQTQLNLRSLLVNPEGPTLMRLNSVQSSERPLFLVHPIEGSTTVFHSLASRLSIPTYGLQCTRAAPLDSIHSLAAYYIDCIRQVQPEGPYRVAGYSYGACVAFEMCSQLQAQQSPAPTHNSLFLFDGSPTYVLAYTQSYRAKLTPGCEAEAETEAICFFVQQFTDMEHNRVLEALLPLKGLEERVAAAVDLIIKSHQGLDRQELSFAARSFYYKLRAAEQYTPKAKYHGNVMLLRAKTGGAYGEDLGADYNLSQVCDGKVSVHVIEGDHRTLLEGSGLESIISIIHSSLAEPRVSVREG

Fatty acid synthase [17] = target: T6, Fatty acid synthase; test: inhibition of human FAS-TE enzyme activity – biochemical, kinetic fluorescence intensity, dose response (AID 624326); assay type: functional;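 also: rate of fluorescence rise from hydrolysis of a fluorogenic O-methyl fluorescein ester substrate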

Nc1ccc(-c2nc3ccc(N)cc3s2)cc1
IC50 (Aminopeptidase N): 21.3 µM (active)
EC50 [1]: 8.6 µM (active)
EC50 [2]: 17.5 µM (active)
CC50 [3]: 100 µM (active)
IC50 [4]: 70.2 µM (active)
AC50 [5]: > 52 µM (inactive)
AC50 [6]: 7.8 µM (active)
AC50 [7]: 7.01 µM (active)

NC(=O)CCC(C(=O)O)N1C(=O)c2ccc(O)cc2C1=O (stereo unspecified)
EC50 [8]: > 195 µM (not active)
IC50 [9]: 23.9 µM (inactive)
IC50 [10]: 16.9 µM (active)

Nc1nc(N)nc(-c2cc(O)ccc2O)n1
IC50 [11]: 5.7 µM (active)

CC(C)Cn1c(SCC(=O)N2CCc3ccccc3C2)nc2cc(Cl)ccc2c1=O
AC50 (INS1): 7.24 µM (active)
IC50 [12]: 6.92 µM (active)
EC50 [13]: > 53 µM (inactive)
IC50 [14]: 6.45 µM (active)

Fc1ccccc1CN=C(S)Nc1ccc(Cl)cc1
IC50 [14]: 14.8 µM (active)

CCOC(=O)[C@]12Cc3cc(Cl)ccc3[C@H]1N(C1CCCCC1)C(=O)c1cc(OC)ccc12
IC50 [15]: 11.7 µM (inactive)
IC50 (Beta Lactamase): 16.8 µM (inactive)
IC50 (Fatty acid synthase [16]): 2.71 µM (active)
IC50 (Fatty acid synthase [17]): 3.04 µM (active)
